Assay results as given in PMC12303383, “The heme-regulated inhibitor kinase Hri1 is activated in response to aminolevulinic acid deficiency in Schizosaccharomyces pombe” (PLOS Genetics, 2025).
pKd: −log10 of the molar value.

Experiments:
Hri2 = biological target: T1, Hri2 (Schizosaccharomyces pombe, UniProt Q9UTE5); assay: differential absorbance spectral titration (Soret peak, […] nm) with purified protein; assay type: binding
T1 construct: MBP-tagged wild-type Hri2 expressed in E. coli, dephosphorylated with lambda phosphatase
T1 sequence (Q9UTE5 1-639): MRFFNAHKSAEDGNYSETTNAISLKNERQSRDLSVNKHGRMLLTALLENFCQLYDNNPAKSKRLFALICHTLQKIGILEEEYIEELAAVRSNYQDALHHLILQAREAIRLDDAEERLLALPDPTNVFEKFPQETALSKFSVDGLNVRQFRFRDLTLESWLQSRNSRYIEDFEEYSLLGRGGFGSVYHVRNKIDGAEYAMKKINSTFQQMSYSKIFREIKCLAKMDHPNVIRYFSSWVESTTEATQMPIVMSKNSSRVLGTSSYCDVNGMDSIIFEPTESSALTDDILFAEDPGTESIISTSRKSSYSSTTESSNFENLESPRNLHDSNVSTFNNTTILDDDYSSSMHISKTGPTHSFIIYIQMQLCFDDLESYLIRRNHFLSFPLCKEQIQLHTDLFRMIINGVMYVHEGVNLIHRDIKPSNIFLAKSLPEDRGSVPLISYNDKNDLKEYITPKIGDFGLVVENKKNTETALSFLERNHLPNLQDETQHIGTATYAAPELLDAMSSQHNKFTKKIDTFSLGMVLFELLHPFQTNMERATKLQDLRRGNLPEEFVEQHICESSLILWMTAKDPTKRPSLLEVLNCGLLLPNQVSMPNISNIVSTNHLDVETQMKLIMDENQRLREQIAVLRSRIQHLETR

[1] = biological target: T2, Hri1 (heme-regulated inhibitor kinase 1) (Schizosaccharomyces pombe, UniProt O13889); assay: as above; assay type: binding
T2 construct: MBP-tagged wild-type Hri1 expressed in E. coli, dephosphorylated with lambda phosphatase
T2 sequence (O13889 1-704): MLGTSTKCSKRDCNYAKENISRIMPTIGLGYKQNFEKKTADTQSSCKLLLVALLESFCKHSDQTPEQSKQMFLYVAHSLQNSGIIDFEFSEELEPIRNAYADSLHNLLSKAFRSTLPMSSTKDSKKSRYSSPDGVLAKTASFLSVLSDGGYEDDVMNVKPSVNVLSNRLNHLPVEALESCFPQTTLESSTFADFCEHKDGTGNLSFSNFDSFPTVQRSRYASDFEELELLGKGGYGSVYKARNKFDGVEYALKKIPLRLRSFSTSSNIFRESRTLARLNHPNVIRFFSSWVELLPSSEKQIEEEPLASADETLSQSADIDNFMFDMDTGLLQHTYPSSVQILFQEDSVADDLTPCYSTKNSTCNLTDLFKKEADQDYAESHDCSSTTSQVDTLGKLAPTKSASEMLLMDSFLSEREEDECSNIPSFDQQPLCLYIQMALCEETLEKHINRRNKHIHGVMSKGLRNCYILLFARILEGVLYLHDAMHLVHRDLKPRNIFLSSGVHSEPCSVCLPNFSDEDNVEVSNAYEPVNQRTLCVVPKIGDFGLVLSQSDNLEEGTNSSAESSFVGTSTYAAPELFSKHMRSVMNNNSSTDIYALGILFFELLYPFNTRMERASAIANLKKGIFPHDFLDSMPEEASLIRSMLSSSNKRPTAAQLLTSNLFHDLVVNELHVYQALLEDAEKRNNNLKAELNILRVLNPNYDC

C=CC1=C(C)C2=Cc3c(C=C)c(C)c4[n]3[Fe]([Cl])[n]3c(c(C)c(CCC(=O)O)c3=CC3=NC(=C4)C(C)=C3CCC(=O)O)=CC1=N2 [hemin]
pKd (Hri2): 5.98
pKd [1]: 6.96
